Measured values published in PMC7641245 (Chemical communications (Cambridge, England), 2020).

Biological target: T1, hIAPP (human islet amyloid polypeptide) (Homo sapiens, UniProt P10997)
T1 sequence (P10997 34-70): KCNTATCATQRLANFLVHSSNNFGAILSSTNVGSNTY
Experiment: isothermal titration calorimetry
Type: binding
Details: hIAPP fibers; no interaction seen by ITC with hIAPP monomers

## CurDAc
  Kd: ~7 µM
